Molecules are shown by their SMILES.

In this assay the target is human PHD2 (Homo sapiens (Human), UniProt Q9GZT9). Briefly: Test 2: human PHD2 inhibitory activity, fluorescence polarization assay of HIF-1α peptide proline hydroxylation. The format is biochemical. The note with it: for IC50: human PHD2, fluorescence polarization assay, 20-min incubation at 30° C.; for inhibition at 1 µM: test compound's concentration 1 μM, Test 2, fluorescence polarization assay, read-out: Percent inhibition (% at 1 μM). The procedure: (1) Expression and Preparation of Human PHD2
Sequence of human PHD2 (Q9GZT9 whole entry): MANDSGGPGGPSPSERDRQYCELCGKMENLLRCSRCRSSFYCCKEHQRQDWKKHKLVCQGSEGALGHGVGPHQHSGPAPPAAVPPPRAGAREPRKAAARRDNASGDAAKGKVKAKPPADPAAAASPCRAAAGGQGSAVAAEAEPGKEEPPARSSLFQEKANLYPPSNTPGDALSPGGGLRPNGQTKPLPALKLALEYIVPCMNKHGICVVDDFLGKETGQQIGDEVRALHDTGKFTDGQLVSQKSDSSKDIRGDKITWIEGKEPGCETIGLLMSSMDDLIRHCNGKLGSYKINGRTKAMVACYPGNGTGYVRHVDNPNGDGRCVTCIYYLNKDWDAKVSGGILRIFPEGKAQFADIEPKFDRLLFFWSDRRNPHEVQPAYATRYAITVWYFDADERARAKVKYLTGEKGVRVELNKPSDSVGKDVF
A registered sequence of human PHD2 (NM_022051) was introduced into pcDNA3.1/Hygro(+) vector (Invitrogen), and the sequence was verified. […] The suspension of disrupted cells was centrifuged at 4° C. and 100,000×g for 30 minutes and the supernatant was recovered as a cell lysate.
(2) Measurement of Human PHD2 Inhibitory Activity
The activity of human PHD2 enzyme was measured with a substrate which is a 19-residue partial peptide based on the sequence of HIF-1α; specifically, the hydroxylation of a proline residue in the peptide was measured by FP (Fluorescence Polarization).
A test compound and the substrate solution were preliminarily added onto 384-well plates and reaction was initiated by adding a human PHD2 enzyme solution (40 ng/well). After 20-min incubation at 30° C., an EDTA-containing quench solution was added and the amount of the proline residues hydroxylated via binding to an added HIF—OH antibody solution was quantified by fluorescence polarization.
The fluorescence polarization of each well was measured and the human PHD2 inhibitory activity of each test compound was calculated on the basis of the values for the test compound-free group.

One may read the IC50 as the concentration at which inhibition is half-maximal. Read a low IC50 as greater potency. As usually defined, the inhibition is the change of the read-out against control, counted positive when it falls. Consider `O=C(O)CNC(=O)C1=C(O)CCN(Cc2ccc(Oc3ncccn3)cc2)C1=O` [Ex. 1-226], for which the IC50 turned out to be 409 nM and the inhibition at 1 µM turned out to be 84%.

For the compound `O=C(O)CNC(=O)C1=C(O)CCN(CC2CCN(C(=O)OCc3ccccc3)CC2)C1=O` [Ex. 1-248], the inhibition at 1 µM came out at 94%.

For the compound `O=C(O)CNC(=O)C1=C(O)CCNC1=O` [Ex. 1-308], the inhibition at 1 µM amounted to 41%.

Turning to `CN1CCC(O)=C(C(=O)NCC(=O)O)C1=O` [Ex. 1-309], the inhibition at 1 µM came to 58%.

Turning to `O=C(O)CNC(=O)C1=C(O)CC2(CCCCC2)CN(Cc2ccccc2)C1=O` [Ex. 1-310], the inhibition at 1 µM stood at 59%.

With `O=C(O)CNC(=O)C1=C(O)CC2(CCNCC2)N(Cc2ccc(-c3ccccc3)cc2)C1=O` [Ex. 1-311], the inhibition at 1 µM turned out to be 83%.

`O=C(O)CNC(=O)C1=C(O)CC2(CCCCC2)CN(Cc2ccc(-c3ccccc3)cc2)C1=O` [Ex. 1-312]: the inhibition at 1 µM stood at 86%.

Regarding `O=C(O)CNC(=O)C1=C(O)CC2(CNC2)N(Cc2ccc(-c3ccccc3)cc2)C1=O` [Ex. 1-313], the inhibition at 1 µM stood at 96%.

Take `O=C(O)CNC(=O)C1=C(O)CC2(CNC(=O)C2)N(Cc2ccc(-c3ccccc3)cc2)C1=O` (stereo not shown) [Ex. 1-314]: the inhibition at 1 µM is 86%.

With `CN1CC2(CC1=O)CC(O)=C(C(=O)NCC(=O)O)C(=O)N2Cc1ccc(-c2ccccc2)cc1` (stereo not shown) [Ex. 1-315], the inhibition at 1 µM was 81%.

`O=C(O)CNC(=O)C1=C(O)CCN(Cc2ccc(-c3cncnc3)cc2)C1=O` [Ex. 1-316]: the inhibition at 1 µM turned out to be 87%.

Turning to `CCCCCCCCCN1CCC(O)=C(C(=O)NCC(=O)O)C1=O` [Ex. 1-317], the inhibition at 1 µM came to 85%.

Regarding `O=C(O)CNC(=O)C1=C(O)CN(Cc2ccc(-c3ccccc3)cc2)C1=O` [Ex. 1-318], the inhibition at 1 µM was 96%.

With `CC(C)CN1CCC(O)=C(C(=O)NCC(=O)O)C1=O` [Ex. 1-319], the inhibition at 1 µM is 42%.

For `O=C(O)CNC(=O)C1=C(O)CCN(Cc2cncnc2)C1=O` [Ex. 1-320], the inhibition at 1 µM came to 57%.

Turning to `O=C(O)CNC(=O)C1=C(O)CCN(Cc2ccc(C(=O)N3CCCCC3)cc2)C1=O` [Ex. 1-321], the inhibition at 1 µM is 84%.

In the case of `CCCNC(=O)c1ccc(CN2CCC(O)=C(C(=O)NCC(=O)O)C2=O)cc1` [Ex. 1-322], the inhibition at 1 µM was determined as 77%.

On to `CC1C(O)=C(C(=O)NCC(=O)O)C(=O)N1Cc1ccc(-c2ccccc2)cc1` (stereo not shown) [Ex. 1-323], for which the inhibition at 1 µM was 87%.

`CC1(C)C(O)=C(C(=O)NCC(=O)O)C(=O)N1Cc1ccc(-c2ccccc2)cc1` [Ex. 1-324]: the inhibition at 1 µM was found to be 91%.

For `O=C(O)CNC(=O)C1=C(O)C2(CCCCC2)N(Cc2ccc(-c3ccccc3)cc2)C1=O` [Ex. 1-325], the inhibition at 1 µM came out at 90%.

Take `O=C(O)CNC(=O)C1=C(O)C(c2ccccc2)N(Cc2ccc(-c3ccccc3)cc2)C1=O` (stereo not shown) [Ex. 1-326]: the inhibition at 1 µM worked out at 71%.

With `CS(=O)(=O)c1ccc(CN2CCC(O)=C(C(=O)NCC(=O)O)C2=O)cc1` [Ex. 1-327], the inhibition at 1 µM amounted to 81%.

For the compound `CS(=O)(=O)c1ccc(CN2C(=O)C(C(=O)NCC(=O)O)=C(O)CC23CCCCC3)cc1` [Ex. 1-328], the inhibition at 1 µM stood at 63%.

Regarding `O=C(O)CNC(=O)C1=C(O)C2(CCCCC2)N(Cc2ccc(-c3ccc(C(F)(F)F)cc3)cc2)C1=O` [Ex. 1-329], the inhibition at 1 µM amounted to 87%.

As for `CC(C)(C)c1ccc(-c2ccc(CN3C(=O)C(C(=O)NCC(=O)O)=C(O)C34CCCCC4)cc2)cc1` [Ex. 1-330], the inhibition at 1 µM is 69%.

On to `CS(=O)(=O)c1ccc(CN2CC3(CCCCC3)C(O)=C(C(=O)NCC(=O)O)C2=O)cc1` [Ex. 1-331], for which the inhibition at 1 µM amounted to 75%.

For `O=C(O)CNC(=O)C1=C(O)C2(CCCCC2)N(CC2CCC(c3ccccc3)CC2)C1=O` (stereo not shown) [Ex. 1-332], the inhibition at 1 µM was 73%.

As for `Cc1ccc(Oc2ncc(CN3CCC(O)=C(C(=O)NCC(=O)O)C3=O)cc2C)cn1` [Ex. 1-333], 92 nM corresponded to half-maximal inhibition (IC50) and the inhibition at 1 µM is 91%.

`O=C(O)CNC(=O)C1=C(O)C(F)(F)CN(Cc2ccc(C(F)(F)F)cc2)C1=O` [Ex. 1-334]: the inhibition at 1 µM was found to be 96%.

In the case of `O=C(O)CNC(=O)C1=C(O)CCN(Cc2ccc(C(=O)O)cc2)C1=O` [Ex. 1-335], the inhibition at 1 µM turned out to be 73%.

Take `O=C(O)CNC(=O)C1=C(O)CCN(Cc2ccc(-c3cccnc3)cn2)C1=O` [Ex. 1-336]: the inhibition at 1 µM is 82%.

Take `Cn1cc(CN2CCC(O)=C(C(=O)NCC(=O)O)C2=O)cn1` [Ex. 1-337]: the inhibition at 1 µM turned out to be 66%.

Regarding `O=C(O)CNC(=O)C1=C(O)CCN(Cc2cnc(C(F)(F)F)nc2)C1=O` [Ex. 1-338], the inhibition at 1 µM turned out to be 71%.

As to `Cc1nc(CN2CCC(O)=C(C(=O)NCC(=O)O)C2=O)c[nH]1` [Ex. 1-339], the inhibition at 1 µM is 40%.

With `O=C(O)CNC(=O)C1=C(O)CCN(Cc2cnc(N3CCOCC3)s2)C1=O` [Ex. 1-340], the inhibition at 1 µM came to 69%.

Consider `Cc1csc(CN2CCC(O)=C(C(=O)NCC(=O)O)C2=O)n1` [Ex. 1-341], for which the inhibition at 1 µM was 66%.

In the case of `CN1CCN(c2ccc(CN3CCC(O)=C(C(=O)NCC(=O)O)C3=O)cc2)CC1` [Ex. 1-342], the inhibition at 1 µM is 57%.

In the case of `CN(C)CCCOc1ccc(CN2CCC(O)=C(C(=O)NCC(=O)O)C2=O)cc1` [Ex. 1-343], the inhibition at 1 µM turned out to be 51%.

In the case of `O=C(O)CNC(=O)C1=C(O)CCN(Cc2ccc(OCCO)cc2)C1=O` [Ex. 1-344], the inhibition at 1 µM amounted to 76%.

On to `CN(C)CCNC(=O)c1ccc(CN2CCC(O)=C(C(=O)NCC(=O)O)C2=O)cc1` [Ex. 1-345], for which the inhibition at 1 µM turned out to be 55%.

Take `O=C(O)CNC(=O)C1=C(O)CCN(Cc2ccc(OCC(=O)O)cc2)C1=O` [Ex. 1-346]: the inhibition at 1 µM stood at 80%.

`O=C(O)CNC(=O)C1=C(O)CCN(Cc2ccc(C(=O)NCCO)cc2)C1=O` [Ex. 1-347]: the inhibition at 1 µM worked out at 55%.

Consider `O=C(O)CNC(=O)C1=C(O)CCN(Cc2ccc(C(=O)NCc3ccccn3)cc2)C1=O` [Ex. 1-348], for which the inhibition at 1 µM was 76%.

Consider `O=C(O)CNC(=O)C1=C(O)CCN(Cc2ccc(C(=O)NCCc3ccccn3)cc2)C1=O` [Ex. 1-349], for which the inhibition at 1 µM stood at 74%.

`O=C(O)CNC(=O)C1=C(O)CCN(Cc2ccc(C(=O)NCCN3CCCC3=O)cc2)C1=O` [Ex. 1-350]: the inhibition at 1 µM is 61%.

As to `O=C(O)CNC(=O)C1=C(O)CCN(Cc2ccc(C(=O)NCC(=O)O)cc2)C1=O` [Ex. 1-351], the inhibition at 1 µM was 81%.

Consider `O=C(O)CNC(=O)C1=C(O)CCN(C[C@H]2C[C@@H]2c2ccc(F)cc2)C1=O` [Ex. 1-352], for which the inhibition at 1 µM came to 91%.

For the compound `COc1cccc(Oc2ccc(CN3CCC(O)=C(C(=O)NCC(=O)O)C3=O)cn2)c1` [Ex. 1-354], the IC50 turned out to be 61 nM and the inhibition at 1 µM was 96%.

In the case of `O=C(O)CNC(=O)C1=C(O)CCN(Cc2ccc(Oc3ccc(C(F)(F)F)cc3)cn2)C1=O` [Ex. 1-356], the IC50 stood at 60 nM and the inhibition at 1 µM was 96%.

As to `O=C(O)CNC(=O)C1=C(O)C2(CCC2)CN(Cc2ccc(OC(F)(F)F)c(Cl)c2)C1=O` [Ex. 1-357], the inhibition at 1 µM amounted to 74%.

Regarding `COc1ccc(-c2ccc(CN3CC(C)(C)C(O)=C(C(=O)NCC(=O)O)C3=O)cc2)cn1` [Ex. 1-358], the inhibition at 1 µM was found to be 88%.

On to `CC1(C)CN(Cc2ccc(OC3CC3)cc2)C(=O)C(C(=O)NCC(=O)O)=C1O` [Ex. 1-359], for which the inhibition at 1 µM came out at 69%.

`COc1ccc(-c2ccc(CN3CC4(CCC4)C(O)=C(C(=O)NCC(=O)O)C3=O)cc2)cn1` [Ex. 1-361]: the inhibition at 1 µM was 93%.

As for `CC1(C)CN(Cc2ccc(C3CC3)cc2)C(=O)C(C(=O)NCC(=O)O)=C1O` [Ex. 1-362], the inhibition at 1 µM was 83%.

Turning to `O=C(O)CNC(=O)C1=C(O)C2(CCC2)CN(Cc2ccc(OC3CC3)cc2)C1=O` [Ex. 1-363], the inhibition at 1 µM was 77%.

In the case of `Cc1cccc(COc2ccc(CN3CCC(O)=C(C(=O)NCC(=O)O)C3=O)cc2)c1` [Ex. 1-364], the inhibition at 1 µM came to 97%.

For the compound `O=C(O)CNC(=O)C1=C(O)CCN(Cc2ccc(Oc3ccc(C(F)(F)F)nc3)cc2)C1=O` [Ex. 1-365], the IC50 was 56 nM and the inhibition at 1 µM was 97%.

Take `Cc1ccc(Oc2ccc(CN3CCC(O)=C(C(=O)NCC(=O)O)C3=O)cn2)cc1Cl` [Ex. 1-366]: the concentration for half-maximal inhibition (IC50) was determined as 19 nM and the inhibition at 1 µM was found to be 103%.

Take `Cc1ccc(Oc2ccc(CN3CCC(O)=C(C(=O)NCC(=O)O)C3=O)cn2)cc1F` [Ex. 1-367]: the IC50 was found to be 26 nM and the inhibition at 1 µM was found to be 105%.

Turning to `Cc1cc(Oc2ccc(CN3CCC(O)=C(C(=O)NCC(=O)O)C3=O)cn2)ccc1F` [Ex. 1-368], the IC50 came out at 41 nM and the inhibition at 1 µM turned out to be 101%.

Consider `O=C(O)CNC(=O)C1=C(O)CCN(Cc2ccc(OCc3ccccc3Cl)cc2)C1=O` [Ex. 1-369], for which the inhibition at 1 µM was found to be 98%.

With `CC1(COc2ccc(CN3CCC(O)=C(C(=O)NCC(=O)O)C3=O)cc2)CC1` [Ex. 1-370], the inhibition at 1 µM came out at 84%.

Consider `O=C(O)CNC(=O)C1=C(O)CCN(CC2CC(c3ccc(F)cc3)C2)C1=O` (stereo not shown) [Ex. 1-371], for which the inhibition at 1 µM was 90%.

On to `O=C(O)CNC(=O)C1=C(O)CCN(Cc2ccc(OCc3cccnc3)cc2)C1=O` [Ex. 1-372], for which the inhibition at 1 µM was determined as 89%.

Turning to `Cc1cccc(COc2ccc(CN3CCC(O)=C(C(=O)NCC(=O)O)C3=O)cc2)n1` [Ex. 1-373], the inhibition at 1 µM came out at 85%.

For the origin of these results see patent US9422240B2, “Partially saturated nitrogen-containing heterocyclic compound” (TAISHO PHARMACEUTICAL CO., LTD, priority 2012, dated 2016).
